Laboratory results published in paper PMC2997783, “Genetic and Chemical Evaluation of Trypanosoma brucei Oleate Desaturase as a Candidate Drug Target” (PLoS ONE, 2010).

Columns and labels:
[1] = molecular target: T1, stearoyl-CoA desaturase (SCD) (Trypanosoma brucei, UniProt Q57YK1); experiment: whole-cell […]-stearate desaturation, argentation-TLC and scintillation counting; type: cell-based; conditions: intact bloodstream-form cells; 50 µM 13-TS, 30 min preincubation, 60 min with [14C]-stearate; may act as a metabolite of the added acid
T1 construct: gene Tb08.11J15.870; native enzyme in intact bloodstream-form cells; carries a cytochrome b-like domain
T1 sequence (Q57YK1 1-431): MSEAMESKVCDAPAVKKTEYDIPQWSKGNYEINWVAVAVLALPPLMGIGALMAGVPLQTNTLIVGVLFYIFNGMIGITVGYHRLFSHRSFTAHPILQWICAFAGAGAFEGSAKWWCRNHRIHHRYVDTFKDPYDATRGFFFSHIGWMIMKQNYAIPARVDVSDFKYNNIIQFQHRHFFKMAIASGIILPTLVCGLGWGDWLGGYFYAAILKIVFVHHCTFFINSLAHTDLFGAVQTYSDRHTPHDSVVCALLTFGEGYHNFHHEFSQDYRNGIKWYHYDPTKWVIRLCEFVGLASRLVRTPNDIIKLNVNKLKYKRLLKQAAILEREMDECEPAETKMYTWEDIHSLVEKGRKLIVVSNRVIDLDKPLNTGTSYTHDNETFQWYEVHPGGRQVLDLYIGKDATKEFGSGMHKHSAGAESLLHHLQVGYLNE

oleate desaturase (OD) = molecular target: T2, oleate desaturase (OD) (Trypanosoma brucei, UniProt Q6UCJ6); experiment: whole-cell […]-oleate desaturation, argentation-TLC and scintillation counting; type: cell-based; conditions: intact bloodstream-form cells; 50 µM 13-TS, 30 min preincubation, 60 min with [14C]-oleate; may act as a metabolite of the added acid
T2 construct: native full-length enzyme in intact T. brucei cells
T2 sequence (Q6UCJ6 1-408): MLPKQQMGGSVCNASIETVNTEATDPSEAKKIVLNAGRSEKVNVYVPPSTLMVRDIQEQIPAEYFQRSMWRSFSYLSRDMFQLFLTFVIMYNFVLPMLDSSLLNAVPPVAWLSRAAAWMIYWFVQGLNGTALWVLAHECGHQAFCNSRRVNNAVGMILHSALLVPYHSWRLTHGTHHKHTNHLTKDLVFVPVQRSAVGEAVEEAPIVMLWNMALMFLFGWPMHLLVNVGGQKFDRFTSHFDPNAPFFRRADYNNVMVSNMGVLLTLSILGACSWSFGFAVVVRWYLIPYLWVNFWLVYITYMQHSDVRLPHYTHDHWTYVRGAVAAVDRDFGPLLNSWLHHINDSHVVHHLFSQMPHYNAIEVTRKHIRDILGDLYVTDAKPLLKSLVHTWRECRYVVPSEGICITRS

In the case of CCCCCSCCCCCCCCCCCC(=O)O [13-TS, 13-thiastearic acid], the “% conversion of stearate to oleate with 50 μM inhibitor (control 23.1%)” value [1] is reported as 19% and the “% conversion of oleate to linoleate with 50 μM inhibitor (control 20.4%)” value (oleate desaturase (OD)) is reported as 7.7%.
